Values of other authors as cited in patent US20230168217A1, “Test strip for the detection of neutral analytes in a sample” (priority 2020, published 2023).
Values joined by “and” are separate entries in the source; they are usually repeats but may differ in a detail not shown here. Equal entries are not always repeated. Where two headings read alike, the source gives them in different places.

Key:
[1] = previously reported
[2] = not given; remark: listed apart in the source

Row | Structure (SMILES) | concentrations in fatal cases of poisoning | Protein bound fractions [1] | Serum levels predicting hepatotoxicity ([2]; 4 hours postingestion) | Serum levels predicting hepatotoxicity ([2]; 24 h post-ingestion)
1 | CN1CC[C@]23c4c5ccc(O)c4O[C@H]2[C@@H](O)C=C[C@H]3[C@H]1C5 [morphine] | approximately 1.75 µM |  |  | 
2 | CC(=O)Nc1ccc(O)cc1 [paracetamol] |  | 20-25% | ≥ 200 µg/ml and ≥ 1.323 mM | ≥ 6.25 µg/mL and ≥ 43.1 µM
3 | COc1cccc(C2(O)CCCCC2CN(C)C)c1 (centres unmarked) [tramadol] | ~3.8 µM |  |  | 
